The subject of test [1] is Respiratory syncytial virus recombinant with luciferase (RSV-Luc5) in NHBE cells. Kind of test: NHBE RSV-Luc5 384-well assay (EC50 RSVFLUC NHBE-384, Example U). It is filed as cell-based. As to conditions: human respiratory syncytial virus, 72 h, read-out: RSV FLuc NHBE 384 EC50 (v2) (nM) (per Ex. U). The protocol:
Normal Human Bronchial Epithelial (NHBE) cells were purchased from Lonza (Walkersville, MD Cat #CC2540) and maintained in BEGM Bronchial Epithelial Cell (Growth Medium BulletKit (Lonza CC-3170).
Cells were thawed, expanded, and were used for experiments at passage 2. Respiratory syncytial virus recombinant with luciferase (RSV-Luc5) (≥1×10^7 Infectious Units/ml (IU/ml) determined by TCID50) was purchased from Microbiologics (Saint Cloud, MN). Viral replication was determined in NHBE cells in the following manner.
Compounds are prepared in 100% DMSO in 384-well polypropylene plates (Greiner, Monroe, NC, Cat #784201) with 8 compounds per plate in grouped replicates of 4 at 10 serially diluted concentrations (1:3). The serially diluted compounds were transferred to low dead volume Echo plates (Labcyte, Sunnyvale, CA, Cat #LP-0200).
The test compounds were spotted to 384-well assay plates (Greiner, Monroe, NC, Cat #781091) at 200 nL per well. NHBE cells were harvested and suspended in BEGM Bronchial Epithelial Cell Growth Medium BulletKit and seeded to the pre-spotted assay plates at 5,000 cells per well in 30 μL. RSV-Luc5 virus was diluted in BEGM Bronchial Epithelial Cell Growth Medium BulletKit at 500,000 Infectious Units (IU) per mL and 10 μL per well was added to the assay plates containing cells and compounds, for an MOI of 1. The assay plates were incubated for 3 days at 37° C. and 5% CO2. At the end of incubation, One-Glo reagent (Promega, Madison, WI, Cat #E6120) was prepared. The assay plates and One-Glo reagent were equilibrated to room temperature for at least 15 minutes. 40 μL per well of One-Glo reagent was added and the plates were incubated at room temperature for 15 minutes before reading the luminescence signal on an EnVision multimode plate reader (Perkin Elmer, Waltham, MA). Remdesivir was used as positive control and DMSO was used as negative control. Values were normalized to the positive and negative controls (as 0% and 100% replication, respectively) and data was fitted using non-linear regression analysis by Gilead's dose response tool. The EC50 value for each compound was defined as the concentration reducing the viral replication by 50%.

Test [2] has as its system Respiratory syncytial virus recombinant with luciferase (RSV-Luc5) in HEp-2 cells. Kind of test: HEp-2 RSV-Luc5 384-well assay (EC50 RSVFLUC Hep2-384 v2, Example V). Format: cell-based. The following applies: human respiratory syncytial virus, HEp-2, 72 h, read-out: RSV Hep-2 FLuc EC50 (v2) (nM) (per Ex. V). A digest of the protocol: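 HEp-2 cells (4,000/well) infected with RSV-Luc5 at MOI 0.5 in DMEM/10% FBS with compound, 10-point 1:3 dilutions, 3 days at 37 °C. Replication read by One-Glo luminescence, normalized to remdesivir (0%) and DMSO (100%). EC50 from non-linear regression as concentration giving 50% reduction.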

Bounds are passed on as bounds.

As to `CCCCCCCCCCCCCCCCCCOC[C@H](COP(=O)(O)OC[C@@]1(C#N)O[C@@H](c2ccc3c(N)ncnn23)[C@H](O)[C@@H]1O)OCc1cc(F)cc(C#N)c1` [Compound 1, ((2R,3S,4R,5S)-5-(4-aminopyrrolo[2,1-f][1,2,4]triazin-7-yl)-2-cyano-3,4-dihydroxytetrahydrofuran-2-yl)methyl ((R)-2-((3-cyano-5-fluorobenzyl)oxy)-3-(octadecyloxy)propyl) hydrogen phosphate], the concentration for a half-maximal effect (EC50) in test [1] was determined as 54 nM; in test [2], 229 nM.
Taken in the same sequence, the figures for `CCCCCCCCCCCCCCCCCCOC[C@H](COP(=O)(O)OC[C@@]1(C#N)O[C@@H](c2ccc3c(N)ncnn23)[C@H](O)[C@@H]1O)OCc1ccc(C#N)c(Cl)c1` [Compound 7, ((2R,3S,4R,5S)-5-(4-aminopyrrolo[2,1-f][1,2,4]triazin-7-yl)-2-cyano-3,4-dihydroxytetrahydrofuran-2-yl)methyl ((R)-2-((3-chloro-4-cyanobenzyl)oxy)-3-(octadecyloxy)propyl) hydrogen phosphate] were 36 nM and 284 nM.
For `CCCCCCCCCCCCCCCCCCOC[C@H](COP(=O)(O)OC[C@@]1(C#N)O[C@@H](c2ccc3c(N)ncnn23)[C@H](O)[C@@H]1O)OCc1ccc(C#N)c(-n2cncn2)c1` [Compound 16, ((2R,3S,4R,5S)-5-(4-aminopyrrolo[2,1-f][1,2,4]triazin-7-yl)-2-cyano-3,4-dihydroxytetrahydrofuran-2-yl)methyl ((R)-2-((4-cyano-3-(1H-1,2,4-triazol-1-yl)benzyl)oxy)-3-(octadecyloxy)propyl) hydrogen phosphate] the same measures were under 3 nM and 36 nM.
In the case of `CCCCCCCCCCCCCCCCCCOC[C@H](COP(=O)(O)OC[C@@]1(C#N)O[C@@H](c2ccc3c(N)ncnn23)[C@H](O)[C@@H]1O)OCc1ccc(C#N)nc1` [Compound 19, ((2R,3S,4R,5S)-5-(4-aminopyrrolo[2,1-f][1,2,4]triazin-7-yl)-2-cyano-3,4-dihydroxytetrahydrofuran-2-yl)methyl ((R)-2-((6-cyanopyridin-3-yl)methoxy)-3-(octadecyloxy)propyl) hydrogen phosphate], the EC50 in test [2] worked out at 60 nM.
For `CCCCCCCCCCCCCCCCCCOC[C@H](COP(=O)(O)OC[C@@]1(C#N)O[C@@H](c2ccc3c(N)ncnn23)[C@H](O)[C@@H]1O)Oc1cccc(C#N)n1` [Compound 21, ((2R,3S,4R,5S)-5-(4-aminopyrrolo[2,1-f][1,2,4]triazin-7-yl)-2-cyano-3,4-dihydroxytetrahydrofuran-2-yl)methyl ((R)-2-((6-cyanopyridin-2-yl)oxy)-3-(octadecyloxy)propyl) hydrogen phosphate], the results for the concentration giving a half-maximal response (EC50) in test [1] and in test [2] were 29 nM and 222 nM, respectively.
Taken in the same sequence, the figures for `CCCCCCCCCCCCCCCCCCOC[C@H](COP(=O)(O)OC[C@@]1(C#N)O[C@@H](c2ccc3c(N)ncnn23)[C@H](O)[C@@H]1O)Oc1ccc(C#N)c(OC(C)C)c1` [Compound 23, ((2R,3S,4R,5S)-5-(4-aminopyrrolo[2,1-f][1,2,4]triazin-7-yl)-2-cyano-3,4-dihydroxytetrahydrofuran-2-yl)methyl ((R)-2-(4-cyano-3-isopropoxyphenoxy)-3-(octadecyloxy)propyl) hydrogen phosphate] were 4 nM and 71 nM.
Taken in the same sequence, the figures for `CCCCCCCCCCCCCCCCCCC[C@H](COP(=O)(O)OC[C@@]1(C#N)O[C@@H](c2ccc3c(N)ncnn23)[C@H](O)[C@@H]1O)OCc1cc(F)cc(C#N)c1` [Compound 25, ((2R,3S,4R,5S)-5-(4-aminopyrrolo[2,1-f][1,2,4]triazin-7-yl)-2-cyano-3,4-dihydroxytetrahydrofuran-2-yl)methyl ((R)-2-((3-cyano-5-fluorobenzyl)oxy)henicosyl) hydrogen phosphate] were 169 nM and 2920 nM.
For `CCCCCCCCCCCCCCCCCCC[C@H](COP(=O)(O)OC[C@@]1(C#N)O[C@@H](c2ccc3c(N)ncnn23)[C@H](O)[C@@H]1O)OCc1ccc(C#N)c(OC(C)C)c1` [Compound 28, ((2R,3S,4R,5S)-5-(4-aminopyrrolo[2,1-f][1,2,4]triazin-7-yl)-2-cyano-3,4-dihydroxytetrahydrofuran-2-yl)methyl ((R)-2-((4-cyano-3-isopropoxybenzyl)oxy)henicosyl) hydrogen phosphate], the EC50 was found to be 46 nM in test [1] and 353 nM in test [2].
For `CCCCCCCCCCCCCCCCCCC[C@H](COP(=O)(O)OC[C@@]1(C#N)O[C@@H](c2ccc3c(N)ncnn23)[C@H](O)[C@@H]1O)OCc1ccc(-n2cncn2)c(C#N)c1` [Compound 30, ((2R,3S,4R)-5-(4-aminopyrrolo[2,1-f][1,2,4]triazin-7-yl)-2-cyano-3,4-dihydroxytetrahydrofuran-2-yl)methyl ((R)-2-((3-cyano-4-(1H-1,2,4-triazol-1-yl)benzyl)oxy)henicosyl) hydrogen phosphate], the EC50 was determined as 14 nM in test [1] and 115 nM in test [2].
For `CCCCCCCCCCCCCCCCCCCC[C@H](COP(=O)(O)OC[C@@]1(C#N)O[C@@H](c2ccc3c(N)ncnn23)[C@H](O)[C@@H]1O)OCc1cc(F)cc(C#N)c1` [Compound 34, ((2R,3S,4R)-5-(4-aminopyrrolo[2,1-f][1,2,4]triazin-7-yl)-2-cyano-3,4-dihydroxytetrahydrofuran-2-yl)methyl ((R)-2-((3-cyano-5-fluorobenzyl)oxy)docosyl) hydrogen phosphate] the same measures were 272 nM and 1890 nM.
Taken in the same sequence, the figures for `CCCCCCCCCCCCCCCCC[C@H](COP(=O)(O)OC[C@@]1(C#N)O[C@@H](c2ccc3c(N)ncnn23)[C@H](O)[C@@H]1O)OCc1cc(F)cc(C#N)c1` [Compound 36, ((2R,3S,4R,5S)-5-(4-aminopyrrolo[2,1-f][1,2,4]triazin-7-yl)-2-cyano-3,4-dihydroxytetrahydrofuran-2-yl)methyl ((R)-2-((3-cyano-5-fluorobenzyl)oxy)nonadecyl) hydrogen phosphate] were 51 nM and 353 nM.
Taken in the same sequence, the figures for `CCCCCCCCCCCCCCCCCC[C@@H](COP(=O)(O)OC[C@@]1(C#N)O[C@@H](c2ccc3c(N)ncnn23)[C@H](O)[C@@H]1O)OCc1cc(F)cc(C#N)c1` [Compound 37, ((2R,3S,4R)-5-(4-aminopyrrolo[2,1-f][1,2,4]triazin-7-yl)-2-cyano-3,4-dihydroxytetrahydrofuran-2-yl)methyl ((S)-2-((3-cyano-5-fluorobenzyl)oxy)icosyl) hydrogen phosphate] were 82 nM and 1240 nM.
Regarding `CCCCCCCCCCCCCCCCCCC[C@H](COP(=O)(O)OC[C@@]1(C#N)O[C@@H](c2ccc3c(N)ncnn23)[C@H](O)[C@@H]1O)Oc1ccc(C#N)c(OC(C)C)c1` [Compound 38, ((2R,3S,4R,5S)-5-(4-aminopyrrolo[2,1-f][1,2,4]triazin-7-yl)-2-cyano-3,4-dihydroxytetrahydrofuran-2-yl)methyl ((R)-2-(4-cyano-3-isopropoxyphenoxy)henicosyl) hydrogen phosphate], the EC50 in test [1] is 25 nM; in test [2] it was 212 nM.
Take `CCCCCCCCCCCCCCCCCCC[C@H](COP(=O)(O)OC[C@@]1(C#N)O[C@@H](c2ccc3c(N)ncnn23)[C@H](O)[C@@H]1O)Oc1cc(OC)c(C#N)c(OC)c1` [Compound 39, ((2R,3S,4R,5S)-5-(4-aminopyrrolo[2,1-f][1,2,4]triazin-7-yl)-2-cyano-3,4-dihydroxytetrahydrofuran-2-yl)methyl ((R)-2-(4-cyano-3,5-dimethoxyphenoxy)henicosyl) hydrogen phosphate]: the half-maximal effective concentration (EC50) in test [1] is 51 nM; in test [2], 327 nM.
Taken in the same sequence, the figures for `CCCCCCCCCCCCCCCCCCOCC(COc1cc(F)cc(C#N)c1)COP(=O)(O)OC[C@@]1(C#N)O[C@@H](c2ccc3c(N)ncnn23)[C@H](O)[C@@H]1O` (stereo partly drawn) [Compound 43, ((2R,3S,4R,5S)-5-(4-aminopyrrolo[2,1-f][1,2,4]triazin-7-yl)-2-cyano-3,4-dihydroxytetrahydrofuran-2-yl)methyl (3-(3-cyano-5-fluorophenoxy)-2-((octadecyloxy)methyl)propyl) hydrogen phosphate] were 98 nM and 707 nM.

For the origin of these results see patent US20250034182A1, “PHOSPHOLIPID COMPOUNDS AND METHODS OF MAKING AND USING THE SAME” (priority 2021, published 2025).
